This note sets out measurements from patent US9095136B2, “2-IODO imidazole-derivatives” (BAYER INTELLECTUAL PROPERTY GMBH, priority 2011, dated 2015).

One series relates to Alternaria brassicae. Put plainly: Example O: preventative in vivo test with Alternaria brassicae (leaf spot on radish). The conditions noted are these: 500 ppm, evaluation 5 days after inoculation. The method, then:
The active compounds tested are prepared by homogenization in a mixture of acetone/Tween/DMSO and then diluted with water to the desired active compound concentration. Radish plants (cultivar “Pernod Clair”), sown in a 50/50 peat/pozzolana soil substrate and cultivated at 17° C., are treated at the 2-leaf stage by spraying with the active compound, prepared as above. As a control, plants are treated with the mixture of acetone/Tween/DMSO/water without the active compound. After 24 hours, the plants are inoculated by spraying the leaves with an aqueous suspension of Alternaria brassicae spores.

A short description of series [1]: log P by HPLC on reversed-phase columns (EEC directive 79/831 Annex V.A8). It counts as physicochemical. How it is done:
The log P values were measured according to EEC directive 79/831 Annex V.A8 by HPLC (High Performance Liquid Chromatography) on reversed-phase columns, using the methods below: […] Calibration was carried out using unbranched alkan-2-ones (having from 3 to 16 carbon atoms) with known log P values (the log P values were determined by the retention times using linear interpolation between two successive alkanones). The lambda maX values were determined in the maxima of the chromatographic signals using the UV spectra from 200 nm to 400 nm.

The subject of series [2] is Sphaerotheca fuliginea. Put plainly: Example V: preventative in vivo test with Sphaerotheca fuliginea (powdery mildew on cucumber). The conditions noted are these: 500 ppm, evaluation 12 days after inoculation. How it is done: The active compounds tested are prepared by homogenization in a mixture of acetone/Tween/DMSO and then diluted with water to the desired active compound concentration. Cucumber plants (cultivar “Vert petit de Paris”), sown in a 50/50 peat/pozzolana soil substrate and cultivated at 24° C., are treated at the Z11 cotyledon stage by spraying with the active compound, prepared as above. As a control, plants are treated with the mixture of acetone/Tween/DMSO/water without the active compound. After 24 hours, the plants are inoculated by spraying the leaves with an aqueous suspension of Sphaerotheca fuliginea spores. The inoculated cucumber plants are incubated at about 20° C./25° C. and a relative atmospheric humidity of 60/70%.

In series [3] the test system is Septoria tritici. Put plainly: Example U: preventative in vivo test with Septoria tritici (leaf blotch disease on wheat). Conditions: 500 ppm, evaluation 21 to 28 days after inoculation. How it is done:
The active compounds tested are prepared by homogenization in a mixture of acetone/Tween/DMSO and then diluted with water to the desired active compound concentration. Wheat plants (cultivar “Scipion”), sown in a 50/50 peat/pozzolana soil substrate and cultivated at 22° C. (12 h)/20° C. (12 h), are treated at the 1-leaf stage (height 10 cm) by spraying with the active compound, prepared as above. As a control, plants are treated with the mixture of acetone/Tween/DMSO/water without the active compound. After 24 hours, the plants are inoculated by spraying the leaves with an aqueous suspension of cryogenically preserved Septoria tritici spores.

Another series has as its system Phakopsora pachyrhizi. The series is described as follows: Example F: Phakopsora test (soya beans)/protective. The conditions noted are these: protective, 100 ppm, evaluation 7 days after inoculation. It counts as in vivo. How it is done:
(§1) Solvents: 24.5 parts by weight of acetone • 24.5 parts by weight of dimethylacetamide Emulsifier: 1 part by weight of alkylaryl polyglycol ether To produce a suitable preparation of active compound, 1 part by weight of active compound is mixed with the stated amounts of solvent and emulsifier, and the concentrate is diluted with water to the desired concentration. To test for protective activity, young plants are sprayed with the preparation of active compound at the stated application rate.

The next series has as its system Venturia inaequalis. The series is described as follows: Example D: Venturia test (apple)/protective. It counts as in vivo. Conditions: protective, 100 ppm, evaluation 10 days after inoculation. The method, then:
as §1, with “Solvent:” for “Solvents:”, “rate. […] The plants are then placed in a greenhouse at about 21° C. and a relative atmospheric humidity of about 90%.” for “rate.”

In a further series the test system is Botrytis cinerea. Put plainly: Example P: preventative in vivo test with Botrytis cinerea (grey mould). The conditions noted are these: cucumber, 500 ppm, evaluation 4-5 days after inoculation. The method, then: The active compounds tested are prepared by homogenization in a mixture of acetone/Tween/DMSO and then diluted with water to the desired active compound concentration. Cucumber plants (cultivar “Vert petit de Paris”), sown in a 50/50 peat/pozzolana soil substrate and cultivated at 24° C., are treated at the Z11 cotyledon stage by spraying with the active compound, prepared as above. As a control, plants are treated with the mixture of acetone/Tween/DMSO/water without the active compound. After 24 hours, the plants are inoculated by spraying the cotyledons with an aqueous suspension of cryogenically preserved Botrytis cinerea spores.

For series [4], the system named is Blumeria graminis f.sp. hordei. The series is described as follows: Example G: Blumeria graminis test (barley)/protective. Format: in vivo. Conditions: protective, 500 ppm, evaluation 7 days after inoculation. How it is done:
Solvent: 49 parts by weight of N,N-dimethylacetamide Emulsifier: 1 part by weight of alkylaryl polyglycol ether To produce a suitable preparation of active compound, 1 part by weight of active compound is mixed with the stated amounts of solvent and emulsifier, and the concentrate is diluted with water to the desired concentration. To test for protective activity, young plants are sprayed with the preparation of active compound at the stated application rate. After the spray coating has dried on, the plants are dusted with spores of Blumeria graminis f.sp. hordei.

In the next series the test system is Puccinia recondita. The series is described as follows: Example T: preventative in vivo test with Puccinia recondita (brown rust on wheat). The conditions noted are these: 500 ppm, evaluation 10 days after inoculation. The method, then:
The active compounds tested are prepared by homogenization in a mixture of acetone/Tween/DMSO and then diluted with water to the desired active compound concentration. Wheat plants (cultivar “Scipion”), sown in a 50/50 peat/pozzolana soil substrate and cultivated at 22° C. (12 h)/20° C. (12 h), are treated at the 1-leaf stage (height 10 cm) by spraying with the active compound, prepared as above. As a control, plants are treated with the mixture of acetone/Tween/DMSO/water without the active compound. After 24 hours, the plants are inoculated by spraying the leaves with an aqueous suspension of Puccinia recondita spores.

Series [5] concerns Septoria tritici. Put plainly: Example I: Septoria tritici test (wheat)/protective. It counts as in vivo. Conditions: protective, 500 ppm, evaluation 21 days after inoculation. How it is done: Solvent: 49 parts by weight of N,N-dimethylacetamide Emulsifier: 1 part by weight of alkylaryl polyglycol ether To produce a suitable preparation of active compound, 1 part by weight of active compound is mixed with the stated amounts of solvent and emulsifier, and the concentrate is diluted with water to the desired concentration. To test for protective activity, young plants are sprayed with the preparation of active compound at the stated application rate. After the spray coating has dried on, the plants are sprayed with a spore suspension of Septoria tritici.

Series [6] relates to Uromyces appendiculatus. Put plainly: Example W: preventative in vivo test with Uromyces appendiculatus (bean rust). The conditions noted are these: 500 ppm, evaluation 10 days after inoculation. The method, then: The active compounds tested are prepared by homogenization in a mixture of acetone/Tween/DMSO and then diluted with water to the desired active compound concentration. Bean plants (cultivar “Saxa”), sown in a 50/50 peat/pozzolana soil substrate and cultivated at 24° C., are treated at the 2-leaf stage (height 9 cm) by spraying with the active compound, prepared as above. As a control, plants are treated with the mixture of acetone/Tween/DMSO/water without the active compound. After 24 hours, the plants are inoculated by spraying the leaves with an aqueous suspension of Uromyces appendiculatus spores.

The subject of another series is Puccinia triticina. The series is described as follows: Example L: Puccinia triticina test (wheat)/protective. Conditions: protective, 500 ppm, evaluation 8 days after inoculation. Format: in vivo. The method, then: Solvent: 49 parts by weight of N,N-dimethylacetamide Emulsifier: 1 part by weight of alkylaryl polyglycol ether To produce a suitable preparation of active compound, 1 part by weight of active compound is mixed with the stated amounts of solvent and emulsifier, and the concentrate is diluted with water to the desired concentration. To test for protective activity, young plants are sprayed with the preparation of active compound at the stated application rate. After the spray coating has dried on, the plants are sprayed with spores with a spore suspension of Puccinia triticina.

In the next series the test system is Pyricularia oryzae. It counts as in vivo. The conditions noted are these: rice, protective, 500 ppm, evaluation 7 days after inoculation.
A further series deals with Fusarium graminearum. It counts as in vivo. Conditions: barley (heading), protective, 500 ppm, evaluation 5 days after inoculation.
In series [7] the test system is Fusarium nivale (var. majus). The series is described as follows: Example M: Fusarium nivale (var. majus) test (wheat)/protective. The conditions noted are these: protective, 500 ppm, evaluation 5 days after inoculation. It counts as in vivo. How it is done:
Solvent: 49 parts by weight of N,N-dimethylacetamide Emulsifier: 1 part by weight of alkylaryl polyglycol ether To produce a suitable preparation of active compound, 1 part by weight of active compound is mixed with the stated amounts of solvent and emulsifier, and the concentrate is diluted with water to the desired concentration. To test for protective activity, young plants are sprayed with the preparation of active compound at the stated application rate. After the spray coating has dried on, the plants are sprayed with a spore suspension of Fusarium nivale (var. majus).

In series [8] the test system is Sphaerotheca fuliginea. Put plainly: Example B: Sphaerotheca test (cucumber)/protective. Format: in vivo. Conditions: protective, 500 ppm, evaluation 7 days after inoculation. The method, then: Solvent: 49 parts by weight of N,N-dimethylformamide Emulsifier: 1 part by weight of alkylaryl polyglycol ether To produce a suitable preparation of active compound, 1 part by weight of active compound is mixed with the stated amounts of solvent and emulsifier, and the concentrate is diluted with water to the desired concentration. To test for protective activity, young cucumber plants are sprayed with the preparation of active compound at the stated application rate. 1 day after the treatment, the plants are inoculated with a spore suspension of Sphaerotheca fuliginea. The plants are then placed in a greenhouse at 70% relative air humidity and a temperature of 23° C.

A further series relates to Alternaria solani. Put plainly: Example A: Alternaria test (tomato)/protective. It counts as in vivo. The conditions noted are these: protective, 500 ppm, evaluation 7 days after inoculation. The method, then: Solvent: 49 parts by weight of N,N-dimethylformamide Emulsifier: 1 part by weight of alkylaryl polyglycol ether To produce a suitable preparation of active compound, 1 part by weight of active compound is mixed with the stated amounts of solvent and emulsifier, and the concentrate is diluted with water to the desired concentration. […] The plants then remain at 96% rel. atmospheric humidity and a temperature of 20° C.

For the next series, the system named is Pyrenophora teres. The series is described as follows: Example K: Pyrenophora teres test (barley)/protective. The conditions noted are these: protective, 500 ppm, evaluation 8 days after inoculation. Format: in vivo. How it is done: Solvent: 49 parts by weight of N,N-dimethylacetamide Emulsifier: 1 part by weight of alkylaryl polyglycol ether To produce a suitable preparation of active compound, 1 part by weight of active compound is mixed with the stated amounts of solvent and emulsifier, and the concentrate is diluted with water to the desired concentration. To test for protective activity, young plants are sprayed with the preparation of active compound at the stated application rate. After the spray coating has dried on, the plants are sprayed with a spore suspension of Pyrenophora teres.

The subject of another series is Leptosphaeria nodorum. The series is described as follows: Example H: Leptosphaeria nodorum test (wheat)/protective. It counts as in vivo. The conditions noted are these: protective, 500 ppm, evaluation 8 days after inoculation. How it is done:
Solvent: 49 parts by weight of N,N-dimethylacetamide Emulsifier: 1 part by weight of alkylaryl polyglycol ether To produce a suitable preparation of active compound, 1 part by weight of active compound is mixed with the stated amounts of solvent and emulsifier, and the concentrate is diluted with water to the desired concentration. To test for protective activity, young plants are sprayed with the preparation of active compound at the stated application rate. After the spray coating has dried on, the plants are sprayed with a spore suspension of Leptosphaeria nodorum.

For series [9], the system named is Uromyces appendiculatus. Put plainly: Example E: Uromyces test (bean)/protective. Conditions: protective, 10 ppm, evaluation 10 days after inoculation. It counts as in vivo. How it is done: as §1, with “rate. […] The plants are then placed in a greenhouse at about 21° C. and a relative atmospheric humidity of about 90%.” for “rate.”

Molecules are shown by their SMILES. Values joined by “and” are separate entries in the source; they are usually repeats but may differ in a detail not shown here. Equal entries are not always repeated. Marks after values point to notes of the source that are not given here.

In the series on Alternaria brassicae, `Fc1ccc(C2(Cn3ccnc3I)OC2c2ccccc2Cl)cc1` (mixture of isomers) [Example 6] yielded an Efficacy % of 75%.

In the case of `Fc1ccc([C@]2(Cn3ccnc3I)O[C@H]2c2ccccc2Cl)c(F)c1` (relative stereo) [Example 14, rel-1-{[(2R,3S)-3-(2-chlorophenyl)-2-(2,4-difluorophenyl)oxiran-2-yl]methyl}-2-iodo-1H-imidazole], the chromatographic logP – broadly, a lipophilicity value derived from retention on a column – in series [1] (pH 2.7, log P(HCOOH)) amounted to 3.23; in series [1] (pH 2.7, logP), 3.23. The Efficacy % in the series on Sphaerotheca fuliginea [2] is given as 100%; in the series with Septoria tritici [3], 100%; with Botrytis cinerea, 97%; with Puccinia recondita, 93%; in the series on Uromyces appendiculatus [6], 100%. Further, the Eff. % in the series with Phakopsora pachyrhizi is listed as 100%; in the series with Venturia inaequalis, 100%; in series [4] it was 90%; in the series with Septoria tritici [5], 100%; with Puccinia triticina, 100%.

Turning to `OC(Cc1ccccc1F)(Cn1ccnc1I)C1(Cl)CC1` (centres unmarked) [Example 2], the Eff. % is 80% in the series on Pyricularia oryzae; 92% and 100% in the series on Fusarium graminearum; 100% in series [7]; 92% with Sphaerotheca fuliginea [8]; 95% with Alternaria solani; 100% in the series on Pyrenophora teres. Also, the Eff. % in [4] is 100%; in the series with Leptosphaeria nodorum, 93%; in the series on Septoria tritici [5], 86%; in the series on Puccinia triticina, 100%; in the series on Uromyces appendiculatus [9], 91% and 100%. Moreover, the values for the logP in [1] (pH 2.7) and in series [1] (pH 7.8) were 2.05 and 3.02, respectively.

Take `Fc1cc(Cl)ccc1C1(Cn2ccnc2I)OC1c1ccccc1Cl` (centres unmarked) [Example 11]: the log partition coefficient (logP) (usually a log measure of how a compound divides between an organic and an aqueous phase) in series [1] (pH 2.7) is 3.7^[a]. Moreover, the Efficacy % in the series with Sphaerotheca fuliginea [2] was determined as 100%; in the series with Septoria tritici [3] it was 100%; with Botrytis cinerea, 92%; with Puccinia recondita it was 93%; with Uromyces appendiculatus [6], 97%.
